Tested on: phosphorylation in the linker regions of Smad proteins
Test: Smad linker region phosphorylation in TGF-β-treated myofibroblasts, immunoprecipitation and immunoblotting with phosphorylation-specific antibodies
Type: cell-based
Conditions: myofibroblasts from rat liver, compounds 30 minutes before 200 pM TGF-β, FIG. 3
Protocol: The phosphorylation of Smad2 and Smad3 was examined by western blotting using antibodies against Smad2 and Smad3 which were site-specifically phosphorylated after the immunoprecipitation with anti-Smad2 antibody and anti-Smad3 antibody.
Myofibroblasts (MFB 2×10^6 cells/100 mm dish) from rat liver were cultured in DMEM medium (containing 5% fetal bovine serum) for several days and further cultured with 200 pM TGF-β (R&D Systems) for 30 minutes under the serum-free conditions. The cells were homogenized with RIPA buffer (10 mM Tris-HCl, pH 7.8/1% NP40/0.15M NaCl/1 mM EDTA/10 μg/ml aprotinin), and the resultant lysate was centrifuged at 15,000×g. The supernatant was incubated with Smad-specific antibodies and protein G-sepharose (Amersham Bioscience) to obtain immunoprecipitate. After the incubation, part of the precipitate was subjected to SDS-polyacrylamide gel electrophoresis, the obtained gel was transferred onto a PVDF membrane, and immunoblotting was performed using the antibodies specific for phosphorylation of the linker regions and C-terminal regions in Smad2 and Smad3. The detection was carried out by a chemiluminescence technique using HRP-labeled secondary antibody/anti-IgG, IgH antibody (Amersham Bioscience). […] The detected bands were quantified using an imaging analyzer.

C[S+]([O-])c1ccc(-c2nc(-c3ccncc3)c(-c3ccc(F)cc3)[nH]2)cc1 (stereo not shown) [SB203580]
phosphorylation in the linker regions of Smad proteins: inhibited

From patent US7417124B2, “Antibodies specific for phosphorylation sites and screening methods using the same antibodies” (Zeria Pharmaceutical Co., Ltd., priority 2003, dated 2008)
